Experimental data from patent US12492230B2, “Antigenic peptides deriving from secretogranin V and uses thereof for the diagnosis and treatment of type 1 diabetes” (INSERM (Institut National de la Santé et de la Recherche …, priority 2018, dated 2025).
Where no end group is shown, it is not given here.

How the values were obtained:
Type in all cases: cell-based, human
circulating CD8+ T cells [1] = test: Ex vivo HLA-A3 multimer (MMr) staining of PBMCs; details: for positive hits for the HLA-A3 restriction: HLA-A3+ T1D and healthy donors
Procedure: HLA-A3 MMrs were produced and used as described (Gonzalez-Duque, Cell Metab 2018). Each peptide-HLA-A3 complex was used at a final concentration of 8-27 nM and conjugated with fluorochrome-labeled streptavidin at a 1:4 ratio. The concentration of each fluorescent MMr was corrected for the variable staining index of each streptavidin, in order to obtain a distinct double-MMr+ population for each fluorochrome pair. Compensations were set using fluorescence-minus-one samples (i.e. omitting one streptavidin at a time).
PBMCs were thawed at 37° C. and immediately diluted in pre-warmed AIM-V medium. Following centrifugation and one additional wash in AIM-V, PBMCs were counted and rested in the presence of 50 nM dasatinib for 30 min at 37° C. to prevent internalization of T-cell receptors before magnetic depletion of CD8^− cells (StemCell Technologies). Staining was performed for 20 min at 20° C. in […] PBS-dasatinib for 10^7 cells with combinatorial double-coded MMr panels, followed, without washing, by CD3-APC-H7 (RRID AB_1645475), CD8-PE-Cy7 (AB_396852), CD45RA-FITC (AB_395879), CCR7-BV421 (AB_2728119) monoclonal antibodies and Live/Dead Aqua (ThermoFisher) staining at 4° C. for 20 min. After one wash, cells were acquired using a FACSAria III cytometer. […] Flow cytometry data were analyzed with FlowJo v10 and Graphpad Prism 7.0 software. Cells were sequentially gated on small lymphocytes, singlets, live cells (Live/Dead Aqua^−), CD3^+CD8^+ T cells and total PE^+, PE-CF594^+, APC^+, BV650^+, BV711^+ and BV786^+MMr^+ T cells. Using Boolean operators, these latter gates allowed to selectively visualize each double-MMr^+ population by including only those events positive for the corresponding fluorochrome pair. For example, SCG3166-174 MMr^+ cells (PE^+PE-CF594^+) were visualized by gating on events that were PE^+PE-CF594^+APC^−BV650^−BV711^−BV786^−. Events negative for all MMr fluorochromes (PE^−PE-CF594^−APC^−BV650^−BV711^−BV786^−) were represented in the same PE/PE-CF-594 dot plot to set the double-MMr^+ gate. CD45RA and CCR7 staining was subsequently visualized by gating on these MMr^+ cells.

circulating CD8+ T cells [2] = test: Ex vivo combinatorial HLA-A2 multimer (MMr) staining of PBMCs; details: for frequency of circulating MMr+ CD8+ T cells (in words): HLA-A2+ recent-onset T1D and healthy subjects; for median frequency in peripheral blood: T1D patients, fraction of CD8+ T cells
Procedure: All peptides were synthesized at >90% purity (Synpeptides). HLA-A2 MMrs were produced as described (Leisner et al., 2008) and staining performed in the presence of 50 nM dasatinib (Lissina et al., 2009), as described (Culina et al., 2018). Briefly, cryopreserved PBMCs were magnetically depleted of CD8^− cells (StemCell Technologies), stained with the combinatorial MMr panels (Hadrup et al., 2009) and acquired using a FACSAria III cytometer.

[3] = tested on: pancreas-infiltrating cells of HLA-A2+ T1D patients; test: In-situ HLA-A2 MMr staining on pancreas sections; details: 2 HLA-A2+ T1D cases, nPOD tissue sections
Procedure: In-situ staining was performed as described (Culina et al., 2018). Unfixed, frozen sections were dried for 2 h, loaded with 1 μg of MMrs overnight at 4° C., washed gently with phosphate-buffered saline and fixed in 2% paraformaldehyde for 10 min. After a further wash, endogenous peroxidase activity was blocked with 0.3% H2O2. Sections were then incubated serially with rabbit anti-phycoerythrin, horseradish peroxidase-conjugated swine anti-rabbit and 3,3′-diaminobenzidine tetrahydrochloride substrate (ThermoFisher). After a final wash, sections were counterstained with hematoxylin, dehydrated via sequential passages in 95-100% ethanol and xylene, mounted and analyzed using a Nikon Eclipse Ni microscope with NIS-Elements Analysis D software v4.40.

[4] = HLA-A2+ healthy donors, screening

Substance	positive hits for the HLA-A3 restriction (circulating CD8+ T cells [1])	cognate naïve CD8+ T-cell repertoire (frequency 1-50/10^6 CD8+ T cells, clustered MMr staining, in ≥50% of individuals) (circulating CD8+ T cells [2]; [4])	further results
PTPRN576-580/708-711: spliced peptide derived from the fusion of two non-contiguous IA-2 sequences, HLA-A3 (SVLLTRLAK)	identified	–	–
RLKPSLVGK	positive hits	–	–
FLSGAVNRL	–	validated	frequency of circulating MMr+ CD8+ T cells (in words) (circulating CD8+ T cells [2]): particularly high and clustered
PNMA250-58: HLA-A3-restricted islet peptide candidate, not validated (RLLGKIFRK)	–	–	validation as CD8+ T-cell epitopes (circulating CD8+ T cells [1]; second validation round, PBMCs from T1D and healthy donors): single exception
KIF1A860-868: HLA-A3-restricted islet peptide from KIF1A (LLYPVPLVH)	positive hits	–	–
KCNK16129-137: HLA-A2-restricted HLA-eluted β-cell peptide from KCNK16 (ALLGIPLNV)	–	validated	–
KIF1A1347-1355: HLA-A2-restricted HLA-eluted β-cell peptide from kinesin family member 1A (VLDTSVAYV)	–	validated	–
UCN31-9: HLA-A2-restricted HLA-eluted β-cell peptide from urocortin-3 leader sequence (MLMPVHFLL)	–	validated	frequency of circulating MMr+ CD8+ T cells (in words) (circulating CD8+ T cells [2]): particularly high and clustered
IAPP15-17/IAPP5-10: peptide splice product from fusion of IAPP15-17 and IAPP5-10, HLA-A2-restricted (VALKLQVFL)	–	–	recognition by circulating CD8+ T cells, donors (circulating CD8+ T cells [2]; [4]): 1 of 6; median frequency in peripheral blood (circulating CD8+ T cells [2]): 1.6×10^−6; in-situ MMr staining of pancreas sections [3]: MMr^+ cells could be detected
ZnT8186-184: positive control islet peptide (VAANIVLTV; UniProt Q8IWU4 186-194, looked up, fragment) [reference compound]	–	–	in-situ MMr staining of pancreas sections [3]: observed
PCSK230-38: HLA-A2-restricted HLA-eluted β-cell peptide from proprotein convertase 2 (FTNHFLVEL)	–	validated	–
SCG3166-174: HLA-A3-restricted islet peptide from secretogranin III (AVFDKIVSK)	positive hits	–	–
UCN346-56: HLA-A3-restricted islet peptide from urocortin-3 (GQWEDASLLSK)	positive hits	–	–
YLQGQRLDNV	–	validated	–
ISL1276-284: HLA-A2-restricted HLA-eluted peptide from insulin gene enhancer protein ISL1 (GLQANPVEV)	–	validated	median frequency in peripheral blood (circulating CD8+ T cells [2]): 7.2×10^−6; in-situ MMr staining of pancreas sections [3]: MMr^+ cells could be detected
CHGA344-352: HLA-A2-restricted HLA-eluted β-cell peptide from chromogranin A, maps to the WE-14 neuropeptide (KMDQLAKEL)	–	validated	–
